Measurements taken from patent US10221177B2 (HYDRA BIOSCIENCES, INC., priority 2014, dated 2019).
pIC50: −log10 of the molar value.

What follows are molecules tested against human TRPA1 (Homo sapiens (Human), UniProt O75762) (assay: In vitro inhibition of human TRPA1, whole cell patch configuration). Conditions: current activation 10 μM AITC, tested concentrations 320 pM to 3.2 μM, read-out: hTRPA1 IC50.
Format: cell-based
Procedure, shortened: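 Compound antagonism measured from voltage ramps (±100 or ±80 mV, 400 ms, every 4 s from −40 mV), analysed at −80 and 80 mV, or at constant −60 mV. HEPES-buffered NaCl bath, pH 7.4, EGTA or 2 mM Ca2+; temperature set by perfusion, within ±2° C; no junction-potential correction.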

human TRPA1, sequence (O75762 whole entry): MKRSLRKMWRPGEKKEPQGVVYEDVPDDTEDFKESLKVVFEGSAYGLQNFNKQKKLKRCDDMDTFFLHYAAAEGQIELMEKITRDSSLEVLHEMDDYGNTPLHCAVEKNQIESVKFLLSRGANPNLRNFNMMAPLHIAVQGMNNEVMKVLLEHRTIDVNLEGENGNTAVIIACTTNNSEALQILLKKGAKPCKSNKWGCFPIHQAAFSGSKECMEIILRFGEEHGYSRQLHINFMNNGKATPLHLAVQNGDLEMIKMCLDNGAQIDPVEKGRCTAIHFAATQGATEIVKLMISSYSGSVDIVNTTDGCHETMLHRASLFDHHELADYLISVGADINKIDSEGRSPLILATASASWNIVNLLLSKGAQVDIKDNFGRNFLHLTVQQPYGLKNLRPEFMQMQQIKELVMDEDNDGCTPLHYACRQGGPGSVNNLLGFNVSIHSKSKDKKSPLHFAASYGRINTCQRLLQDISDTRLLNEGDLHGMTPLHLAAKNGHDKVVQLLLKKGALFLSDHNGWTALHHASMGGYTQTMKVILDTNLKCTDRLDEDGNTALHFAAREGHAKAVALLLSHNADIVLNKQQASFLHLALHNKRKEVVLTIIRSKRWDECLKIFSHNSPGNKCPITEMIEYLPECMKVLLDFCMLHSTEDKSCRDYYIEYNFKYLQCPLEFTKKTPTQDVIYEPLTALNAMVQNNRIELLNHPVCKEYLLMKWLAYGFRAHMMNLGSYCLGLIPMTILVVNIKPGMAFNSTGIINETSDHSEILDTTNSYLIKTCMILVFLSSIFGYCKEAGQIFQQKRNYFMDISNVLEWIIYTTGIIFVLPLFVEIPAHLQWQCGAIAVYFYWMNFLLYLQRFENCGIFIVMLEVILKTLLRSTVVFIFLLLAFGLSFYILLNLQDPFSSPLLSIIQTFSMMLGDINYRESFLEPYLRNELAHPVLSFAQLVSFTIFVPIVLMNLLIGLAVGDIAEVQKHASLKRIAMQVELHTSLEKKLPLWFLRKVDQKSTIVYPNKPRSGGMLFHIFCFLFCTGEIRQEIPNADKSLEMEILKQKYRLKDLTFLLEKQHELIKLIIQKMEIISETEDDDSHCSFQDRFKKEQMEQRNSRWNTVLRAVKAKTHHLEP

Row | Structure (SMILES) | pIC50
1 | CCC(=O)Cn1c(=O)c2c(ncn2[C@@H](C)C(=O)Nc2cccc(-c3cnc(N4CC5CC5C4)nc3)n2)n(C)c1=O (stereo partly drawn) [Compound 147, (2S)—N-(6-(2-(3-azabicyclo[3.1.0]hexan-3-yl)pyrimidin-5-yl)pyridin-2-yl)-2-(3-methyl-2,6-dioxo-1-(2-oxobutyl)-2,3-dihydro-1H-purin-7(6H)-yl)propanamide] | 8.22
2 | Cc1nc2c(c(=O)n(Cc3ccccn3)c(=O)n2C)n1CC(=O)Nc1cccc(-c2cnc(C(F)(F)F)nc2)n1 [Compound 177, 2-(3,8-dimethyl-2,6-dioxo-1-(pyridin-2-ylmethyl)-2,3-dihydro-1H-purin-7(6H)-yl)-N-(6-(2-(trifluoromethyl)pyrimidin-5-yl)pyridin-2-yl)acetamide] | 7.38
3 | CC(=O)Cn1c(=O)c2c(ncn2[C@@H](C)C(=O)Nc2cccc(-c3cnc(N4CC5C(C4)C5(F)F)cn3)n2)n(C)c1=O (stereo partly drawn) [Compound 257, (2S)—N-(6-(5-(6,6-difluoro-3-azabicyclo[3.1.0]hexan-3-yl)pyrazin-2-yl)pyridin-2-yl)-2-(3-methyl-2,6-dioxo-1-(2-oxopropyl)-2,3-dihydro-1H-purin-7(6H)-yl)propanamide] | 7.96
4 | Cc1cc(Cn2c(=O)c3c(ncn3CC(=O)Nc3cccc(N4CCC(C(F)(F)F)CC4)n3)n(C)c2=O)no1 [Compound 202, 2-(3-methyl-1-((5-methylisoxazol-3-yl)methyl)-2,6-dioxo-2,3-dihydro-1H-purin-7(6H)-yl)-N-(6-(4-(trifluoromethyl)piperidin-1-yl)pyridin-2-yl)acetamide] | 7.59
5 | C[C@@H](C(=O)Nc1ccnc(-c2ccc(N3CC4CC4C3)nc2)n1)n1cnc2c1c(=O)n(CC#N)c(=O)n2C (stereo partly drawn) [Compound 53, (2S)—N-(2-(6-(3-azabicyclo[3.1.0]hexan-3-yl)pyridin-3-yl)pyrimidin-4-yl)-2-(1-(cyanomethyl)-3-methyl-2,6-dioxo-2,3-dihydro-1H-purin-7(6H)-yl)propanamide] | 7.85
6 | COCC(=O)Cn1c(=O)c2c(ncn2[C@@H](C)C(=O)Nc2cccc(-c3cnc(N4CC5CC5C4)cn3)n2)n(C)c1=O (stereo partly drawn) [Compound 266, (2S)—N-(6-(5-(3-azabicyclo[3.1.0]hexan-3-yl)pyrazin-2-yl)pyridin-2-yl)-2-(1-(3-methoxy-2-oxopropyl)-3-methyl-2,6-dioxo-2,3-dihydro-1H-purin-7(6H)-yl)propanamide] | 8.15
7 | CCC(=O)Cn1c(=O)c2c(ncn2[C@@H](C)C(=O)Nc2cccc(-c3ccc(N4CC5C(C4)C5(F)F)nc3)n2)n(C)c1=O (stereo partly drawn) [Compound 68, (2S)—N-(6′-(6,6-difluoro-3-azabicyclo[3.1.0]hexan-3-yl)-[2,3′-bipyridin]-6-yl)-2-(3-methyl-2,6-dioxo-1-(2-oxobutyl)-2,3-dihydro-1H-purin-7(6H)-yl)propanamide] | 8.30
8 | CCC(=O)Cn1c(=O)c2c(ncn2[C@@H](C)C(=O)Nc2ccnc(-c3ccc(N4CC5C(C4)C5(F)F)nc3)n2)n(C)c1=O (stereo partly drawn) [Compound 70, (2S)—N-(2-(6-(6,6-difluoro-3-azabicyclo[3.1.0]hexan-3-yl)pyridin-3-yl)pyrimidin-4-yl)-2-(3-methyl-2,6-dioxo-1-(2-oxobutyl)-2,3-dihydro-1H-purin-7(6H)-yl)propanamide] | 8.30
9 | C[C@@H](C(=O)Nc1cccc(-c2ccc(N3CC4CC4C3)nc2)n1)n1cnc2c1c(=O)n(CC#N)c(=O)n2C (stereo partly drawn) [Compound 35, (2S)—N-(6′-(3-azabicyclo[3.1.0]hexan-3-yl)-2,3′-bipyridin-6-yl)-2-(1-(cyanomethyl)-3-methyl-2,6-dioxo-2,3-dihydro-1H-purin-7(6H)-yl)] | 8.22
10 | Cc1cc(Cn2c(=O)c3c(ncn3CC(=O)Nc3ccc(N4CCC(C(C)(C)F)CC4)cn3)n(C)c2=O)no1 [Compound 220, N-(5-(4-(2-fluoropropan-2-yl)piperidin-1-yl)pyridin-2-yl)-2-(3-methyl-1-((5-methylisoxazol-3-yl)methyl)-2,6-dioxo-2,3-dihydro-1H-purin-7(6H)-yl)acetamide] | 7.14
11 | CCC(=O)Cn1c(=O)c2c(ncn2[C@@H](C)C(=O)Nc2cncc(-c3ccc(N4CC5CC5C4)nc3)n2)n(C)c1=O (stereo partly drawn) [Compound 42, (2S)—N-(6-(6-(3-azabicyclo[3.1.0]hexan-3-yl)pyridin-3-yl)pyrazin-2-yl)-2-(3-methyl-2,6-dioxo-1-(2-oxobutyl)-2,3-dihydro-1H-purin-7(6H)-yl)propanamide] | 8.40
12 | C[C@@H](C(=O)Nc1cccc(-c2cnc(C(F)(F)F)nc2)n1)n1cnc2c1c(=O)n(CC1COC1)c(=O)n2C [Compound 51, (S)-2-(3-methyl-1-(oxetan-3-ylmethyl)-2,6-dioxo-2,3-dihydro-1H-purin-7(6H)-yl)-N-(6-(2-(trifluoromethyl)pyrimidin-5-yl)pyridin-2-yl)propanamide] | < 5.49

Continued, values first:

Row | pIC50 | Structure (SMILES)
13 | 8.15 | COCC(=O)Cn1c(=O)c2c(ncn2[C@@H](C)C(=O)Nc2cccc(-c3cnc(N4CC5CC5C4)nc3)n2)n(C)c1=O (stereo partly drawn) [Compound 165, (2S)—N-(6-(2-(3-azabicyclo[3.1.0]hexan-3-yl)pyrimidin-5-yl)pyridin-2-yl)-2-(1-(3-methoxy-2-oxopropyl)-3-methyl-2,6-dioxo-2,3-dihydro-1H-purin-7(6H)-yl)propanamide]
14 | 9.00 | CCC(=O)Cn1c(=O)c2c(ncn2[C@@H](C)C(=O)Nc2csc(-c3cnc(C)c(C(F)(F)F)c3)n2)n(C)c1=O [Compound 99, (S)-2-(3-methyl-2,6-dioxo-1-(2-oxobutyl)-2,3-dihydro-1H-purin-7(6H)-yl)-N-(2-(6-methyl-5-(trifluoromethyl)pyridin-3-yl)thiazol-4-yl)propanamide]
15 | 8.70 | CCN(CC)c1ncc(-c2nc(NC(=O)[C@H](C)n3cnc4c3c(=O)n(Cc3cc(C)on3)c(=O)n4C)cs2)cn1 [Compound 36, (S)—N-(2-(2-(diethylamino)pyrimidin-5-yl)thiazol-4-yl)-2-(3-methyl-1-((5-methylisoxazol-3-yl)methyl)-2,6-dioxo-2,3-dihydro-1H-purin-7(6H)-yl)propanamide]
16 | 8.15 | C[C@@H](C(=O)Nc1ccnc(-c2cnc(N3CCC[C@@H]3C(F)(F)F)nc2)n1)n1cnc2c1c(=O)n(CC#N)c(=O)n2C [Compound 49, (S)-2-(1-(cyanomethyl)-3-methyl-2,6-dioxo-2,3-dihydro-1H-purin-7(6H)-yl)-N-(2′-((R)-2-(trifluoromethyl)pyrrolidin-1-yl)-2,5′-bipyrimidin-4-yl)propanamide]
17 | 8.70 | CC#CCn1c(=O)c2c(ncn2[C@@H](C)C(=O)Nc2csc(-c3cnc(N4CC5CC5C4)nc3)n2)n(C)c1=O (stereo partly drawn) [Compound 145, (2S)—N-(2-(2-(3-azabicyclo[3.1.0]hexan-3-yl)pyrimidin-5-yl)thiazol-4-yl)-2-(1-(but-2-ynyl)-3-methyl-2,6-dioxo-2,3-dihydro-1H-purin-7(6H)-yl)propanamide]
18 | 7.41 | C[C@@H](C(=O)Nc1cccc(-c2cnc(C(F)(F)F)nc2)n1)n1cnc2c1c(=O)n(Cc1ccccn1)c(=O)n2C [Compound 5, (S)-2-(3-methyl-2,6-dioxo-1-(pyridin-2-ylmethyl)-2,3-dihydro-1H-purin-7(6H)-yl)-N-(6-(2-(trifluoromethyl)pyrimidin-5-yl)pyridin-2-yl)propanamide]
19 | 7.48 | CC(=O)Cn1c(=O)c2c(ncn2[C@@H](C)C(=O)Nc2csc(-c3cnc(C)c(F)c3)n2)n(C)c1=O [Compound 92, (S)—N-(2-(5-fluoro-6-methylpyridin-3-yl)thiazol-4-yl)-2-(3-methyl-2,6-dioxo-1-(2-oxopropyl)-2,3-dihydro-1H-purin-7(6H)-yl)propanamide]
20 | 7.36 | C[C@@H](C(=O)Nc1cncc(-c2cnc(C(F)(F)F)nc2)n1)n1cnc2c1c(=O)n(Cc1ccccn1)c(=O)n2C [Compound 8, (S)-2-(3-methyl-2,6-dioxo-1-(pyridin-2-ylmethyl)-2,3-dihydro-1H-purin-7(6H)-yl)-N-(6-(2-(trifluoromethyl)pyrimidin-5-yl)pyrazin-2-yl)propanamide]
21 | 8.30 | CCC(=O)Cn1c(=O)c2c(ncn2[C@@H](C)C(=O)Nc2ccnc(-c3cnc(N4CC5C(C4)C5(F)F)nc3)n2)n(C)c1=O (stereo partly drawn) [Compound 62, (2S)—N-(2′-(6,6-difluoro-3-azabicyclo[3.1.0]hexan-3-yl)-[2,5′-bipyrimidin]-4-yl)-2-(3-methyl-2,6-dioxo-1-(2-oxobutyl)-2,3-dihydro-1H-purin-7(6H)-yl)propanamide]
22 | 7.92 | CC#CCn1c(=O)c2c(ncn2[C@@H](C)C(=O)Nc2cccc(-c3cnc(N4CC5CC5C4)nc3)n2)n(C)c1=O (stereo partly drawn) [Compound 168, (2S)—N-(6-(2-(3-azabicyclo[3.1.0]hexan-3-yl)pyrimidin-5-yl)pyridin-2-yl)-2-(1-(but-2-yn-1-yl)-3-methyl-2,6-dioxo-2,3-dihydro-1H-purin-7(6H)-yl)propanamide]
23 | 7.85 | Cn1c(=O)n(Cc2ccccn2)c(=O)c2c1ncn2CC(=O)Nc1csc(-c2ccc(F)c(F)c2)n1 [Compound 178, N-(2-(3,4-difluorophenyl)thiazol-4-yl)-2-(3-methyl-2,6-dioxo-1-(pyridin-2-ylmethyl)-2,3-dihydro-1H-purin-7(6H)-yl)acetamide]
24 | 7.35 | CC(=O)Cn1c(=O)c2c(ncn2CC(=O)Nc2cccc(-c3cnc(C(F)(F)F)nc3)n2)n(C)c1=O [Compound 185, 2-(3-methyl-2,6-dioxo-1-(2-oxopropyl)-2,3-dihydro-1H-purin-7(6H)-yl)-N-(6-(2-(trifluoromethyl)pyrimidin-5-yl)pyridin-2-yl)acetamide]
25 | 7.89 | COCC(=O)Cn1c(=O)c2c(ncn2CC(=O)Nc2csc(-c3cnc(C(F)(F)F)c(C)c3)n2)n(C)c1=O [Compound 255, 2-(1-(3-methoxy-2-oxopropyl)-3-methyl-2,6-dioxo-2,3-dihydro-1H-purin-7(6H)-yl)-N-(2-(5-methyl-6-(trifluoromethyl)pyridin-3-yl)thiazol-4-yl)acetamide]
